# Reference: BindingDB's records for doi:10.7270/Q2CZ35MZ (Nmmlsc, 2009)
# Biological target: T1, Bcl-2-like protein 2 (Homo sapiens, UniProt Q92843)
# T1 sequence (Q92843 whole entry): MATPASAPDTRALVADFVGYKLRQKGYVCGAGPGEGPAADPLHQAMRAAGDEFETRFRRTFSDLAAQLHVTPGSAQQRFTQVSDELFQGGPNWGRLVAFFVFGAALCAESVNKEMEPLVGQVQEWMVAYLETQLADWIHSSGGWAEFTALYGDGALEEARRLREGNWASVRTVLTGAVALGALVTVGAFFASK
# Experiment: inhibitors of Bim binding to Bcl-W, confirmation, biochemical, multiplexed, bead-based flow cytometry, HTS hits (AID 2081)
# Details: not given
row,Compound,EC50
1,"Cc1nnc(Sc2cc(NCCO)c([N+](=O)[O-])c3nonc23)s1 [2-[[7-[(5-methyl-1,3,4-thiadiazol-2-yl)thio]-4-nitro-2,1,3-benzoxadiazol-5-yl]amino]ethanol]",1.31 µM
2,CC(=O)OCCCNc1cc(Sc2nc3ccccc3s2)c2nonc2c1[N+](=O)[O-] [MLS000521052],0.62 µM
3,"COc1ccccc1NC1=C(NC(C)=O)C(=O)c2ccccc2C1=O [N-[3-(2-methoxyanilino)-1,4-dioxonaphthalen-2-yl]acetamide]",3.35 µM
4,Cc1cc2nn(-c3cccc4ccccc34)nc2cc1N [SMR000076237],2.64 µM

# Same assay, conditions: inactive by the depositor's call
row,Compound,EC50
1,O=C(/C=C/c1ccc(-c2ccccc2[N+](=O)[O-])o1)c1ccccc1,21.2 µM
2,CCOc1ccccc1CNc1ccc(O)cc1,26 µM
3,"O=C(NCc1ccccc1)c1ccc2nc(-c3ccco3)c(-c3ccco3)nc2c1 [2,3-bis(furan-2-yl)-N-(phenylmethyl)quinoxaline-6-carboxamide]",11.4 µM
4,"CNC1CCC(Br)CC(C(=O)C=Cc2cccc(OC)c2OC)C1=O (configuration not stated) [4-bromo-2-[(E)-3-(2,3-dimethoxyphenyl)-1-oxoprop-2-enyl]-7-(methylamino)-1-cycloheptanone]",47.3 µM
5,"COc1cc(/N=C2\SSNC2Cl)c(OC)cc1Cl (configuration not stated) [4-chloro-N-(4-chloro-2,5-dimethoxyphenyl)-5-dithiazolidinimine]",23 µM
6,Clc1nc(NCc2cccnc2)nc(N2CCOCC2)n1 [MLS000121154],15.5 µM
7,"COc1ccc(CCNC(=O)c2ccc3nc(-c4ccco4)c(-c4ccco4)nc3c2)cc1OC [N-[2-(3,4-dimethoxyphenyl)ethyl]-2,3-di-2-furylquinoxaline-6-carboxamide]",20.8 µM
8,Oc1ccc(NCc2ccccc2OCc2ccccc2)cc1 [SMR000231540],20.5 µM
